This note sets out measurements from patent US20080234262A1 (Wyeth, priority 2007, published 2008).

In one assay the target is PI3K (Homo sapiens, UniProt P42336). In words: Fluorescence polarization assay for PI3K.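 Also: PI3K kinase reaction on PIP2 with ATP, 30-60 min, product sensed by GST-GRP with red probe in fluorescence polarization (mP), controls without enzyme and at zero time.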 In kind it is biochemical. The conditions noted are these: PI3Kα; read-out: PI3Kα IC50.
In another assay the test system is prostate line LNCap. Description: In vitro cell culture growth assay (MTS), LNCap.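 Also: viable cell density read by absorbance at 490 nm, growth expressed as percent of vehicle-treated cells on the same plate.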 The class given is cell-based, human. The conditions noted are these: LNCap cells, three days after drug treatment.
In the next assay the test system is breast line MDA468. In words: In vitro cell culture growth assay (MTS), MDA468. The class given is cell-based, human. The following applies: MDA468 cells, three days after drug treatment. In short, it runs like this:
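Growth measured as percent of same-plate vehicle control by MTS metabolic dye conversion (A490). Breast MDA468 and prostate LNCap cells, plated a day ahead, were exposed to compounds for 3 days.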

Chain of PI3K (P42336 whole entry): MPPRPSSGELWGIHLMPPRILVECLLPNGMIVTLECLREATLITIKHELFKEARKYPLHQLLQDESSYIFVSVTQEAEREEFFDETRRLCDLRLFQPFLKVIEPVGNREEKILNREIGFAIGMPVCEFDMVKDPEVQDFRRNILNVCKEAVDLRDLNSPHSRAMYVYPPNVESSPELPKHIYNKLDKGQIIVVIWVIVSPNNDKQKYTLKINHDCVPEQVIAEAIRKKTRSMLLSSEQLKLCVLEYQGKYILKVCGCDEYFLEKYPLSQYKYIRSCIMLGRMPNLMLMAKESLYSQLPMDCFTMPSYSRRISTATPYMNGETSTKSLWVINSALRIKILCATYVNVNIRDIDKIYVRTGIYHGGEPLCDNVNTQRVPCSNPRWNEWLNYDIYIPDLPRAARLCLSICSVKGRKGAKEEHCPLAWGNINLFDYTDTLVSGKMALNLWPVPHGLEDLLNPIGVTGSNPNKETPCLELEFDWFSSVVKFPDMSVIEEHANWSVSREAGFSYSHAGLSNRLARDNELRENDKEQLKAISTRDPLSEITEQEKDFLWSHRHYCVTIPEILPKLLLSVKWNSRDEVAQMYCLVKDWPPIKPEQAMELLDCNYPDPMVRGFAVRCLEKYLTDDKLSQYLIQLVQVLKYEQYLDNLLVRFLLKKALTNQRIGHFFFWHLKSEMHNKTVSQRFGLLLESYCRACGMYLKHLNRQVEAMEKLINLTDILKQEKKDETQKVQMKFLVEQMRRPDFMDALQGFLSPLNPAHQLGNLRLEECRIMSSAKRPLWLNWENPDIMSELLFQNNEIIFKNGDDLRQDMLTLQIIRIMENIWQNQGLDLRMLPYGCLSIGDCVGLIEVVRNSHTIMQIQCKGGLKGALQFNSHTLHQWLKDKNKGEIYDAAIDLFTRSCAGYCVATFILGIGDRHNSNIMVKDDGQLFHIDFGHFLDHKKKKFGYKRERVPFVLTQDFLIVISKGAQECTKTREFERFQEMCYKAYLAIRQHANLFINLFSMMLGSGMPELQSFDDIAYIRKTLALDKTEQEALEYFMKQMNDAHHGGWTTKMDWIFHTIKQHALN
Chain of PI3K (P27986 whole entry partner): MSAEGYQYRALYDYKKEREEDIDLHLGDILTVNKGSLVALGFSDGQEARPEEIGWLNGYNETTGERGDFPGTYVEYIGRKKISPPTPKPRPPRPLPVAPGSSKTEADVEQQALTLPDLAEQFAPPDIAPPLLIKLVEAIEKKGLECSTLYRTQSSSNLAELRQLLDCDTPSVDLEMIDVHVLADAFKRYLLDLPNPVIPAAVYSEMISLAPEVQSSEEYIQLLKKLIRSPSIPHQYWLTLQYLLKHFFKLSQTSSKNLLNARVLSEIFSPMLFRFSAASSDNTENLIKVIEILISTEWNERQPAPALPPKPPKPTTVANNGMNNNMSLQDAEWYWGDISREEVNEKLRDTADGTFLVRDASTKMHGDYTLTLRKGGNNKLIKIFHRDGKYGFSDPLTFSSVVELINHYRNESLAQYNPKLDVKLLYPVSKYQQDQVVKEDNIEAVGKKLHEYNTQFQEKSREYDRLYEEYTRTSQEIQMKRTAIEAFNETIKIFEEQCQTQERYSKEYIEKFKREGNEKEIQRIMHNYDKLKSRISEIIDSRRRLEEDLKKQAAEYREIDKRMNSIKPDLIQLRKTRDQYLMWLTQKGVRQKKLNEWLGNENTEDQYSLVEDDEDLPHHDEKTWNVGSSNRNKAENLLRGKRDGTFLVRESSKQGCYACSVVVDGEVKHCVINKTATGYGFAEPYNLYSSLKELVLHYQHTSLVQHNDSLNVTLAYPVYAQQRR

With `Nc1ccc(-c2nc(N3CCOCC3)c3cnn(C4CCC5(CC4)OCCO5)c3n2)cc1` [Compound 320, 4-[1-(1,4-dioxaspiro[4.5]dec-8-yl)-4-morpholin-4-yl-1H-pyrazolo[3,4-d]pyrimidin-6-yl]aniline], the IC50 at PI3K stood at 2050 nM; in the assay on prostate line LNCap (Homo sapiens, LNCaP, 72 h), 1100 nM; with breast line MDA468 (Homo sapiens, 72 h), 7200 nM.

Regarding `CC(=O)NCc1cccc(-c2nc(N3CCOCC3)c3cnn(-c4ccccc4)c3n2)c1` [Compound 145], the half-maximal inhibitory concentration (IC50) at PI3K was 583 nM; in the assay on prostate line LNCap (Homo sapiens, LNCaP, 72 h), 5500 nM; in the assay with breast line MDA468 (Homo sapiens, 72 h), 21000 nM.

As for `COC(=O)Nc1ccc(-c2nc(N3CCOCC3)c3cnn(C4CCN(Cc5ccc(F)cc5)CC4)c3n2)cc1` [Compound 450, methyl (4-{1-[1-(4-fluorobenzyl)piperidin-4-yl]-4-morpholin-4-yl-1H-pyrazolo[3,4-d]pyrimidin-6-yl}phenyl)carbamate], the IC50 is 750 nM at PI3K; 1200 nM in the assay on prostate line LNCap (Homo sapiens, LNCaP, 72 h); 2600 nM with breast line MDA468 (Homo sapiens, 72 h).

Consider `CCOC(=O)N1CCC(n2ncc3c(N4CCOCC4)nc(-c4ccc(NC(=O)OC)cc4)nc32)CC1` [Compound 805, ethyl 4-(6-{4-[(methoxycarbonyl)amino]phenyl}-4-morpholin-4-yl-1H-pyrazolo[3,4-d]pyrimidin-1-yl)piperidine-1-carboxylate], for which the IC50 on PI3K worked out at 2670 nM; with prostate line LNCap (Homo sapiens, LNCaP, 72 h), 510 nM; with breast line MDA468 (Homo sapiens, 72 h), 800 nM.

`CNC(=O)Nc1ccc(-c2nc(N3CCOCC3)c3cnn(C4CC[S+]([O-])CC4)c3n2)cc1` (stereo not drawn) [Compound 868, 1-methyl-3-{4-[4-morpholin-4-yl-1-(1-oxidotetrahydro-2H-thiopyran-4-yl)-1H-pyrazolo[3,4-d]pyrimidin-6-yl]phenyl}urea]: the IC50 on PI3K was determined as 80 nM; in the assay on prostate line LNCap (Homo sapiens, LNCaP, 72 h) it was 1200 nM; with breast line MDA468 (Homo sapiens, 72 h), 720 nM.

As to `CCOC(=O)N1CCC(n2ncc3c(N4CCOC[C@H]4C)nc(-c4ccc(NC(=O)Nc5ccncc5)cc4)nc32)CC1` [Compound 893, ethyl 4-(4-[(3R)-3-methylmorpholin-4-yl]-6-{4-[(pyridin-4-ylcarbamoyl)amino]phenyl}-1H-pyrazolo[3,4-d]pyrimidin-1-yl)piperidine-1-carboxylate], the IC50 was 517 nM on PI3K; 5 nM in the assay on prostate line LNCap (Homo sapiens, LNCaP, 72 h); 180 nM with breast line MDA468 (Homo sapiens, 72 h).

Take `O=C(Nc1ccccc1)Nc1ccc(-c2nc(N3CCOCC3)c3cnn(C4CCN(CCCCO)CC4)c3n2)cc1` [Compound 748, 1-(4-{1-[1-(4-hydroxybutyl)piperidin-4-yl]-4-morpholin-4-yl-1H-pyrazolo[3,4-d]pyrimidin-6-yl}phenyl)-3-phenylurea]: the IC50 came out at 53 nM at PI3K; 80 nM with prostate line LNCap (Homo sapiens, LNCaP, 72 h); 390 nM in the assay on breast line MDA468 (Homo sapiens, 72 h).

With `COC(=O)N1CCC(n2ncc3c(N4CCOCC4)nc(-c4ccc(NC(=O)Nc5ccc(CCNCCN)cc5)cc4)nc32)CC1` [Compound 920, methyl 4-[6-(4-{[(4-{2-[(2-aminoethyl)amino]ethyl}phenyl)carbamoyl]amino}phenyl)-4-morpholin-4-yl-1H-pyrazolo[3,4-d]pyrimidin-1-yl]piperidine-1-carboxylate], the IC50 on PI3K turned out to be 4 nM; in the assay with prostate line LNCap (Homo sapiens, LNCaP, 72 h), 0.8 nM; in the assay with breast line MDA468 (Homo sapiens, 72 h) it was 300 nM.

`CCNC(=O)Nc1ccc(-c2nc(N3CCOCC3)c3cnn(C4CCN(Cc5ccccc5)CC4)c3n2)cc1F` [Compound 596, 1-{4-[1-(1-benzylpiperidin-4-yl)-4-morpholin-4-yl-1H-pyrazolo[3,4-d]pyrimidin-6-yl]-2-fluorophenyl}-3-ethylurea]: the IC50 was determined as 485 nM at PI3K; 230 nM with prostate line LNCap (Homo sapiens, LNCaP, 72 h); 2500 nM in the assay with breast line MDA468 (Homo sapiens, 72 h).

Take `CC(C)(C)OC(=O)N1CCC[C@@H](n2ncc3c(N4CCOCC4)nc(-c4ccc(N)cc4)nc32)C1` [Compound 871, tert-butyl (3R)-3-[6-(4-aminophenyl)-4-morpholin-4-yl-1H-pyrazolo[3,4-d]pyrimidin-1-yl]piperidine-1-carboxylate]: the IC50 on PI3K was 4300 nM; with prostate line LNCap (Homo sapiens, LNCaP, 72 h), 7500 nM; in the assay on breast line MDA468 (Homo sapiens, 72 h) it was 2300 nM.

Regarding `COC(=O)Nc1ccc(-c2nc(N3CCOCC3)c3cnn(C4CCN(Cc5ccc(Cl)cc5)CC4)c3n2)cc1` [Compound 451, methyl (4-{1-[1-(4-chlorobenzyl)piperidin-4-yl]-4-morpholin-4-yl-1H-pyrazolo[3,4-d]pyrimidin-6-yl}phenyl)carbamate], the concentration for half-maximal inhibition (IC50) on PI3K worked out at 389 nM; with prostate line LNCap (Homo sapiens, LNCaP, 72 h) it was 2000 nM; in the assay with breast line MDA468 (Homo sapiens, 72 h), 9000 nM.

As for `CNC(=O)Nc1ccc(-c2nc(N3CCOCC3)c3cnn(C4CCN(C(=O)c5ccccn5)CC4)c3n2)cc1` [Compound 662, 1-methyl-3-(4-{4-morpholin-4-yl-1-[1-(pyridin-2-ylcarbonyl)piperidin-4-yl]-1H-pyrazolo[3,4-d]pyrimidin-6-yl}phenyl)urea], the 50% inhibitory concentration (IC50) on PI3K amounted to 124 nM; in the assay on prostate line LNCap it was 120 nM; in the assay on breast line MDA468 it was 220 nM.

With `OCCCN1CCC(n2ncc3c(N4CCOCC4)nc(-c4ccc5[nH]ccc5c4)nc32)CC1` [Compound 247, 3-{4-[6-(1H-indol-5-yl)-4-morpholin-4-yl-1H-pyrazolo[3,4-d]pyrimidin-1-yl]piperidin-1-yl}propan-1-ol], the IC50 on PI3K turned out to be 7290 nM; with prostate line LNCap (Homo sapiens, LNCaP, 72 h), 2500 nM; with breast line MDA468 (Homo sapiens, 72 h), 3000 nM.

In the case of `c1cc2cc(-c3nc(N4CCOCC4)c4cnn(CCN5CCCCC5)c4n3)ccc2[nH]1` [Compound 125], the IC50 on PI3K worked out at 9750 nM; in the assay with prostate line LNCap (Homo sapiens, LNCaP, 72 h), 4400 nM; in the assay with breast line MDA468 (Homo sapiens, 72 h), 7300 nM.

As to `O=C(Nc1ccc(-c2nc(N3CCOCC3)c3cnn(-c4ccccc4)c3n2)cc1)C1CCNCC1` [Compound 140], the IC50 on PI3K was 131 nM; in the assay with prostate line LNCap (Homo sapiens, LNCaP, 72 h), 2900 nM; with breast line MDA468 (Homo sapiens, 72 h) it was 1300 nM.

For `Nc1ccc(-c2nc(N3CCOCC3)c3cnn(C4CCN(C(=O)c5cccnc5)CC4)c3n2)nc1` [Compound 435, 6-{4-morpholin-4-yl-1-[1-(pyridin-3-ylcarbonyl)piperidin-4-yl]-1H-pyrazolo[3,4-d]pyrimidin-6-yl}pyridin-3-amine], the IC50 amounted to 4040 nM at PI3K; 45000 nM with prostate line LNCap (Homo sapiens, LNCaP, 72 h); 60000 nM with breast line MDA468 (Homo sapiens, 72 h).

For `C[C@H]1COCCN1c1nc(-c2cccc(O)c2)nc2c1cnn2-c1ccccc1` [Compound 726, 3-{4-[(3S)-3-methylmorpholin-4-yl]-1-phenyl-1H-pyrazolo[3,4-d]pyrimidin-6-yl}phenol], the IC50 on PI3K worked out at 98 nM; with prostate line LNCap (Homo sapiens, LNCaP, 72 h), 2700 nM; with breast line MDA468 (Homo sapiens, 72 h), 8000 nM.

Consider `Oc1cccc(-c2nc(N3CCOCC3)c3cnn(C4CCN(CC5CCCCC5)CC4)c3n2)c1` [Compound 17], for which the half-maximal inhibitory concentration (IC50) on PI3K was 107 nM; in the assay with prostate line LNCap (Homo sapiens, LNCaP, 72 h) it was 310 nM; with breast line MDA468 (Homo sapiens, 72 h), 2000 nM.

Consider `O=C(NCCF)Nc1ccc(-c2nc(N3CCOCC3)c3cnn(-c4ccccc4)c3n2)cc1` [Example 294, 1-(2-fluoroethyl)-3-[4-(4-morpholin-4-yl-1-phenyl-1H-pyrazolo[3,4-d]pyrimidin-6-yl)phenyl]urea], for which the IC50 on PI3K came out at 251 nM; in the assay on prostate line LNCap (Homo sapiens, LNCaP, 72 h) it was 190 nM; with breast line MDA468 (Homo sapiens, 72 h) it was 900 nM.

Take `CNC(=O)Nc1ccc(-c2nc(N3CCOCC3)c3cnn(C4CCN(Cc5ccc(Cl)cc5)CC4)c3n2)cc1` [Example 394, 1-(4-{1-[1-(4-chlorobenzyl)piperidin-4-yl]-4-morpholin-4-yl-1H-pyrazolo[3,4-d]pyrimidin-6-yl}phenyl)-3-methylurea]: the concentration for half-maximal inhibition (IC50) is 18 nM on PI3K; 60 nM in the assay with prostate line LNCap (Homo sapiens, LNCaP, 72 h); 300 nM in the assay with breast line MDA468 (Homo sapiens, 72 h).

Regarding `COC(=O)Nc1ccc(-c2nc(N3CCOCC3)c3cnn(C4CCN(Cc5ccc(Cl)nc5)CC4)c3n2)cc1` [Example 454, methyl [4-(1-{1-[(6-chloropyridin-3-yl)methyl]piperidin-4-yl}-4-morpholin-4-yl-1H-pyrazolo[3,4-d]pyrimidin-6-yl)phenyl]carbamate], the IC50 was 619 nM at PI3K; 740 nM with prostate line LNCap (Homo sapiens, LNCaP, 72 h); 2000 nM in the assay with breast line MDA468 (Homo sapiens, 72 h).

For the compound `CNC(=O)Nc1ccc(-c2nc(N3CCOCC3)c3cnn(C4CCN(C(=O)c5ccc(F)nc5)CC4)c3n2)cc1` [Example 421, 1-[4-(1-{1-[(6-fluoropyridin-3-yl)carbonyl]piperidin-4-yl}-4-morpholin-4-yl-1H-pyrazolo[3,4-d]pyrimidin-6-yl)phenyl]-3-methylurea], the IC50 at PI3K was 100 nM; in the assay with prostate line LNCap (Homo sapiens, LNCaP, 72 h), 250 nM; in the assay with breast line MDA468 (Homo sapiens, 72 h), 300 nM.

On to `O=C(Nc1ccc(-c2nc(N3CCOCC3)c3cn[nH]c3n2)cc1)c1cccnc1` [Compound 278, N-[4-(4-morpholin-4-yl-1H-pyrazolo[3,4-d]pyrimidin-6-yl)phenyl]nicotinamide], for which the IC50 came out at 1170 nM on PI3K; 7200 nM in the assay on prostate line LNCap (Homo sapiens, LNCaP, 72 h); 60000 nM with breast line MDA468 (Homo sapiens, 72 h).

For the compound `CNCCNC(=O)Nc1ccc(-c2nc(N3CCOCC3)c3cnn(C4CCN(C(=O)c5cccnc5)CC4)c3n2)cc1` [Example 346, 1-[2-(methylamino)ethyl]-3-(4-{4-morpholin-4-yl-1-[1-(pyridin-3-ylcarbonyl)piperidin-4-yl]-1H-pyrazolo[3,4-d]pyrimidin-6-yl}phenyl)urea], the IC50 on PI3K worked out at 45 nM; with prostate line LNCap (Homo sapiens, LNCaP, 72 h), 5000 nM; with breast line MDA468 (Homo sapiens, 72 h), 9000 nM.

Take `CCOC(=O)N1CCC(n2ncc3c(N4CCOCC4)nc(-c4ccc(NC(=O)Nc5cccnc5)cc4)nc32)CC1` [Compound 816, ethyl 4-(4-morpholin-4-yl-6-{4-[(pyridin-3-ylcarbamoyl)amino]phenyl}-1H-pyrazolo[3,4-d]pyrimidin-1-yl)piperidine-1-carboxylate]: the IC50 on PI3K is 60 nM; in the assay on prostate line LNCap (Homo sapiens, LNCaP, 72 h), less than 27 nM; in the assay with breast line MDA468 (Homo sapiens, 72 h), less than 27 nM.

For the compound `O=C(NCCF)Nc1ccc(-c2nc(N3CCOCC3)c3cnn(C4CCN(CCCCO)CC4)c3n2)cc1` [Compound 747, 1-(2-fluoroethyl)-3-(4-{1-[1-(4-hydroxybutyl)piperidin-4-yl]-4-morpholin-4-yl-1H-pyrazolo[3,4-d]pyrimidin-6-yl}phenyl)urea], the IC50 at PI3K was 782 nM; with prostate line LNCap (Homo sapiens, LNCaP, 72 h), 3300 nM; with breast line MDA468 (Homo sapiens, 72 h), 6660 nM.
